One data set deals with T1, KDR (Homo sapiens, UniProt P35968).
T1 construct: expressed in transfected cells; host or cells: NIH3T3
Kind of data set: (125I)-VEGF binding inhibition on NIH3T3 cells in which KDR was forced to be expressed. As to conditions: KDR-expressing NIH3T3 cells, (125I)-VEGF 25 pM, 90 minutes, read-out: IC50 (concentration of 50% binding inhibition). On the procedure: (§1) According to the method described in a document (Cell Growth & Differentiation, vol. 7, pp. 213-221, 1996), the following tests were carried out.
(§2) NIH3T3 cells in which Flt-1 was forced to be expressed were seeded on a 24-well collagen-coated plate (7×10^4/well), and were cultured in Dulbecco's modified Eagle's medium (DMEM) including 10% bovine serum and 200 μg/ml of Geneticin G418, for 24 hours at 37° C. under an atmosphere of 5% carbon dioxide gas. The cells were preincubated in Buffer A (including 10 mM HEPES (N-2-hydroxyethylpiperazine-N′-2-ethanesulfonic acid) and 0.1% BSA (bovine serum albumin) in DMEM), for 30 minutes at 4° C. Subsequently, the medium was replaced with Buffer B (including 10 mM HEPES and 0.5% BSA in DMEM). A test solution prepared by dissolving each of the test compounds shown in Table 19 in dimethylsulfoxide and subsequently diluting the solution into a prescribed concentration with Buffer B, and (^125I)-VEGF (the final concentration was set to 25 pM) were added thereto. Binding reaction was carried out for 90 minutes at […]. After completion of the reaction, the cells were washed three times with ice-cooled Buffer A. Subsequently, 0.5 ml of 0.5M NaOH were added to each well, and the cells were lysed in 30 minutes at room temperature. The radioactivity of the lysed cells in each well was measured by means of a gamma counter, and a total binding quantity of (^125I)-VEGF was calculated. Nonspecific binding quantity of (^125I)-VEGF was measured by competition assay in the presence of 10 nM non-labeled VEGF. The specific binding quantity of (^125I)-VEGF was calculated from the difference between the total binding quantity of (^125I)-VEGF and nonspecific binding quantity of (^125I)-VEGF.
(§3) The binding inhibition index of the test compounds was calculated by the following equation. [formula]
(§4) From this value, a concentration of 50% binding inhibition (IC50) of the test compound was calculated.
Test on each of the test compounds shown in Table 20 and Table 21 was carried out employing NIH3T3 cells in which KDR was forced to be expressed, in the same manner as described in Experimental Example 1 described above.

For a further data set, the target named is T2, Flt-1 (Homo sapiens, UniProt P17948).
T2 construct: expressed in transfected cells; host or cells: NIH3T3
T2 sequence (P17948 27-1338): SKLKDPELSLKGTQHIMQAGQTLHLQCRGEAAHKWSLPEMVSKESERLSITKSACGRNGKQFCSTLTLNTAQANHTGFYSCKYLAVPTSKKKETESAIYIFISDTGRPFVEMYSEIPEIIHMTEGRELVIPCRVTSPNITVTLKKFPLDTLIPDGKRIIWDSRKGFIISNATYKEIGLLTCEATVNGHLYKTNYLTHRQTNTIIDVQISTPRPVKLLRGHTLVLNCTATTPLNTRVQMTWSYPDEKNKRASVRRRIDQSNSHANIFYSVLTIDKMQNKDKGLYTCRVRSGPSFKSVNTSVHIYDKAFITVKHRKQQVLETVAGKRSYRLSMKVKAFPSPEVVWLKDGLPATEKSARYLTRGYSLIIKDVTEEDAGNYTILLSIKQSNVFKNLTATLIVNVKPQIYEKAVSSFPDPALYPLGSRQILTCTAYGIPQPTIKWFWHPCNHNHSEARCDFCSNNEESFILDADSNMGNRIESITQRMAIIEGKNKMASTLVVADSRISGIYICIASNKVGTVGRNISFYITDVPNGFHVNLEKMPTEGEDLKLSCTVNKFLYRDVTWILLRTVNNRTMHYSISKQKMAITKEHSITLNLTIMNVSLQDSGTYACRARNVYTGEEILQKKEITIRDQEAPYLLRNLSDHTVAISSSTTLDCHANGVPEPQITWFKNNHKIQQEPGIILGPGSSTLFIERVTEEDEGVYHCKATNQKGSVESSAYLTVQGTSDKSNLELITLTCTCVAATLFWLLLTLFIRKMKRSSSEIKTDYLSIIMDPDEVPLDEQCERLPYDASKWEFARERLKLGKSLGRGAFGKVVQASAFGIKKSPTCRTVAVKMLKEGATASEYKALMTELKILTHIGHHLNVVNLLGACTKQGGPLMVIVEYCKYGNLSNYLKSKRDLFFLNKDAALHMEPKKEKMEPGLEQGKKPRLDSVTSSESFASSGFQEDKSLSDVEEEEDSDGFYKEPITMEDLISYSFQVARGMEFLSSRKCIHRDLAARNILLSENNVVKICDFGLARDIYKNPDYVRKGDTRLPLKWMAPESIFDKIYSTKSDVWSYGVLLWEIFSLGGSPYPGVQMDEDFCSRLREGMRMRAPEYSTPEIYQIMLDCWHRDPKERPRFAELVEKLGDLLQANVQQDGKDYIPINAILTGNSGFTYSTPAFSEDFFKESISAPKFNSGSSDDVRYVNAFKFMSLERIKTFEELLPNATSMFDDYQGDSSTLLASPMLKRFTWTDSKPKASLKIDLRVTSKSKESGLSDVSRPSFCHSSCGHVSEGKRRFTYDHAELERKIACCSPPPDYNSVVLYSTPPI
Kind of data set: (125I)-VEGF binding inhibition on NIH3T3 cells in which Flt-1 was forced to be expressed. As to conditions: Flt-1-expressing NIH3T3 cells, (125I)-VEGF 25 pM, 90 minutes; read-out: IC50 (concentration of 50% binding inhibition). On the procedure:
as §1, §2, §3, §4

Usually melting point stands for the temperature, or range, at which the solid turns liquid.

Read-outs that look alike come from different tables or passages of the source.

T1 sequence (P35968 20-1356): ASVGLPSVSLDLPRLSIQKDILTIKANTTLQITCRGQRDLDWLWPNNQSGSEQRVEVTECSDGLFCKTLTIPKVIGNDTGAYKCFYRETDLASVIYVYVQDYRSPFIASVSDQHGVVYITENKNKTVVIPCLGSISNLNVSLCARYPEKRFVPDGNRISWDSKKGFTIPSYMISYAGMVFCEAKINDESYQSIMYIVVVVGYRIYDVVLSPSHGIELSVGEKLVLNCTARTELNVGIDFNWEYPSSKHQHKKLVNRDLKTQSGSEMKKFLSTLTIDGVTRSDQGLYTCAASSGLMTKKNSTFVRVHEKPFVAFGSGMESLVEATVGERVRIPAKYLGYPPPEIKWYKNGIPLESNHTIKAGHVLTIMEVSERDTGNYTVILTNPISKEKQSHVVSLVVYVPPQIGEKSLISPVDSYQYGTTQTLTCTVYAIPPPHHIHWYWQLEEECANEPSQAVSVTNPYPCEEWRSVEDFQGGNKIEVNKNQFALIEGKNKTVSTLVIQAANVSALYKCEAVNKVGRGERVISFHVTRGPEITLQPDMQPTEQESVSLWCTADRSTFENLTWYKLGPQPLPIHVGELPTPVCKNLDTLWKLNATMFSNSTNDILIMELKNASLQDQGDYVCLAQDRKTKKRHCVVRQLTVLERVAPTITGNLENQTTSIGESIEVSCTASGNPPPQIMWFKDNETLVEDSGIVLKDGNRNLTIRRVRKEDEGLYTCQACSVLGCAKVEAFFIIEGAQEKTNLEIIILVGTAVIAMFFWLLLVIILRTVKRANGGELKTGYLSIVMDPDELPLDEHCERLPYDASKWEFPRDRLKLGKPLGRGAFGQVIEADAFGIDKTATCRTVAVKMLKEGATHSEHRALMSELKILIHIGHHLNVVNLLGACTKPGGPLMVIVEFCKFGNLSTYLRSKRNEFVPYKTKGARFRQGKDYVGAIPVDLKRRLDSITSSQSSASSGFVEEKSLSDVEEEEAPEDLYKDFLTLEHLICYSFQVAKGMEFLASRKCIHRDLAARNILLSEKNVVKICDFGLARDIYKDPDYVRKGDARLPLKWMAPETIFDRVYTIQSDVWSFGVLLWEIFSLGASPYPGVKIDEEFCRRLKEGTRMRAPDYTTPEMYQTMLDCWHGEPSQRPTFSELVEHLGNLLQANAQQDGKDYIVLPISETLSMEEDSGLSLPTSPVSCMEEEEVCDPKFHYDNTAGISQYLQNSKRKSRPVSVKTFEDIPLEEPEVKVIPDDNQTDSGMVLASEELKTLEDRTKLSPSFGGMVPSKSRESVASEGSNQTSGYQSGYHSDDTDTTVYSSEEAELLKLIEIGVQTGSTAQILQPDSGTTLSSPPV

In the case of `CCCCCCCCCCCCCCCCCCOc1ccc(CCC(=O)Nc2ccc(Oc3ccc(C(=O)O)cc3)c(C(=O)O)c2)cc1` [Compound 27], the melting point is 213 to 215 °C. Besides, on KDR (Table 20), the IC50 came out at 510 nM. Besides, the IC50 at Flt-1 was found to be 680 nM.

`CCCCCCCCCCCCCCCCCCOc1ccc(CCC(=O)N(C)c2ccc(SC)c(C(=O)O)c2)cc1` [Compound 113]: the melting point was 106 to 108 °C. On KDR (Table 21), the IC50 was determined as 80 nM. Moreover, the IC50 at Flt-1 turned out to be 280 nM.

In the case of `CCCCCCCCCCCCCCCCCCOc1ccc(CCC(=O)Nc2ccc(Oc3cccc(C(=O)O)c3)c(C(=O)O)c2)cc1` [Compound 28], the melting point was in the range of 201 to 205 °C. The IC50 at KDR (Table 20) stood at 420 nM. Also, at Flt-1, the IC50 was 710 nM.

Turning to `CCCCCCCCCCCCCCCCCCOc1ccc(CC(=O)N(C)c2ccc(SC)c(C(=O)O)c2)cc1` [Compound 114], the IC50 is 340 nM on KDR (Table 21) and 420 nM on Flt-1.

Take `CCCCCCCCCCCCCCCCCCOc1ccc(CC(=O)N(C)c2ccc(SCCCO)c(C(=O)O)c2)cc1` [Compound 162]: the melting point is 104.5 to 106.5 °C. The IC50 at KDR (Table 21) came out at 1160 nM.

Compound `CCCCCCCCCCCCCCCCCCOc1ccc(CCC(=O)N(CC)c2ccc(SC)c(C(=O)O)c2)cc1` [Compound 149] showed a melting point of 108 to 110 °C. Further, at KDR (Table 21), the IC50 came out at 140 nM.

Take `CCCCCCCCCCCCCCCCCCOc1ccc(CCC(=O)Nc2cc(C(=O)O)ccc2Sc2cccc(C(=O)O)c2)cc1` [Compound 43]: the melting point lay in the range of 246 to 248 °C. For the same compound, the IC50 on KDR (Table 20) was 660 nM.

`CCCCCCCCCCCCCCCCCCOc1ccc(CCC(=O)Nc2ccc(Oc3ccc(CC(=O)O)cc3)c(C(=O)O)c2)cc1` [Compound 31] yielded a melting point of 170 to 173 °C. Also, the IC50 at KDR (Table 20) came to 1230 nM.

The compound `CCCCCCCCCCCCCCCCCCOc1ccc(CC(=O)N(C)c2ccc(SCCO)c(C(=O)O)c2)cc1` [Compound 161] gave a melting point of 114 to 117.5 °C. Besides, the IC50 at KDR (Table 21) came to 1300 nM.

With `CCCCCCCCCCCCCCCCCCOc1ccc(CCC(=O)Nc2ccc(Oc3ccccc3C(=O)O)c(C(=O)O)c2)cc1` [Compound 29], the melting point lay in the range of 184 to 186 °C. Further, on KDR (Table 20), the IC50 was found to be 1190 nM.

As for `CCCCCCCCOc1ccc(OCCCCCCCCCCCC(=O)Nc2ccc(SC)c(C(=O)O)c2)cc1` [Compound 138], the melting point lay in the range of 180 to 185 °C. The IC50 on KDR (Table 21) is 430 nM.

As for `CCCCCCCCCCCCCCCCCCOc1ccc(CCC(=O)Nc2ccc(Oc3ccc4cc(C(=O)O)ccc4c3)c(C(=O)O)c2)cc1` [Compound 35], the melting point was 215 to 225 °C. Moreover, the IC50 on KDR (Table 20) stood at 200 nM.

As for `CCCCCCCCCCCCCCCCCCOc1ccc(CCC(=O)Nc2ccc(Sc3ccc(C(=O)O)cn3)c(C(=O)O)c2)cc1` [Compound 44], the melting point was in the range of 221 to 223 °C. Besides, the IC50 at KDR (Table 20) worked out at 910 nM.

On to `CCCCCCCCCCCCCCCCCCOc1ccc(CCC(=O)Nc2ccc(SC)c(C(=O)O)c2)cc1OC` [Compound 119], for which the melting point was 174 to 176 °C. For the same compound, the IC50 on KDR (Table 21) is 290 nM.

As for `CCCCCCCCCCCCCCCCCC(=O)Nc1cccc(CC(=O)Nc2ccc(SC)c(C(=O)O)c2)c1` [Compound 131], the melting point was 224 to 228 °C. In addition, the IC50 on KDR (Table 21) worked out at 310 nM.

Source of the values: patent publication US6720424B1, “Aminobenzoic acid derivatives” (Taisho Pharmaceutical Co., Ltd., priority 1999, dated 2004).
